Data from patent US20220387375A1, “TRPV1 ACTIVATION-MODULATING COMPLEX MIXTURES OF CANNABINOIDS AND/OR TERPENES” (GBS Global Biopharma, Inc., priority 2018, published 2022).

Legend:
[1] = molecular target: T1, TRPV1 (Rattus norvegicus, UniProt O35433); assay: Bulk calcium assay (Fluo-4) in HEK-TRPV1 overexpressing cells; format: cell-based; conditions: for TRPV1-mediated calcium influx compared to vehicle: terpene 10 μM, vehicle subtracted (FIG. 14)
T1 construct: FLAG; expressed in transfected cells
T1 sequence (O35433 whole entry): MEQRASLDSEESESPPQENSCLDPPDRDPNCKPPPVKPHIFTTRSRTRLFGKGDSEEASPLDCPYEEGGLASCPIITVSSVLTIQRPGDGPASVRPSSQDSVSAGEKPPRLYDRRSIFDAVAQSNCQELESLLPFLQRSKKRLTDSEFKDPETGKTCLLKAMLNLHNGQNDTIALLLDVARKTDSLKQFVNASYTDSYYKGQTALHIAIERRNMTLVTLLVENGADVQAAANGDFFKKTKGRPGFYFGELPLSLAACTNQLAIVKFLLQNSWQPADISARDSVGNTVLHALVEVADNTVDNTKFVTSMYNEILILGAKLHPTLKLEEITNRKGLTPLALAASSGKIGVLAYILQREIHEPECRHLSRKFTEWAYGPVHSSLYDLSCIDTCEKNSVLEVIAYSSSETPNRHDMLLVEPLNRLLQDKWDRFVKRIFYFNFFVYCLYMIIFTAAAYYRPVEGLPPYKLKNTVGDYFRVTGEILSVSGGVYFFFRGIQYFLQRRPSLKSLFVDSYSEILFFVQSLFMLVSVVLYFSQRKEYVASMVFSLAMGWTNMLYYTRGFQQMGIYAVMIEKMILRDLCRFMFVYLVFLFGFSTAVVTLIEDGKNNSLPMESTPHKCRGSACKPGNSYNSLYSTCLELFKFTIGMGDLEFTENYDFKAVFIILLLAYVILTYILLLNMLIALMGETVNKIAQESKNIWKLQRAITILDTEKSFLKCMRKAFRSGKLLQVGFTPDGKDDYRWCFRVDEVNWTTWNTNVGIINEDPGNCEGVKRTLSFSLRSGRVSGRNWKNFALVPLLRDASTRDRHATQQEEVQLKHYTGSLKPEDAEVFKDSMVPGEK
Procedure: Cells were washed and incubated with 0.2 micromolar Fluo-4 for 30 minutes at 37° C. in a standard modified Ringer's solution of the following composition (in mM): NaCl 145, KCl 2.8, CsCl 10, CaCl2 10, MgCl2 2, glucose 10, Hepes·NaOH 10, pH 7.4, 330 mOsm. Cells were transferred to 96-well plates at 50,000 cells/well and stimulated as indicated. Calcium signals were acquired using a Flexstation 3 (Molecular Devices, Sunnydale, USA). Data was analyzed using SoftMax® Pro 5 (Molecular Devices). Where indicated, nomically calcium-free external conditions were achieved by the preparation of 0 mM CaCl2 Ringer solution containing 1 mM EGTA.
The cell culture system described in U.S. patent application Ser. No. 15/986,316 was used to test the TRPV1-mediated calcium response to various terpenes. The HEK293 cell line was stably transfected with the pcDNA6TR (Invitrogen, CA) plasmid (encoding the tetracycline-sensitive TREx repressor protein), and was maintained in DMEM+10% fetal bovine serum (inactivated at 55° C. for 1 h)+2 mM glutamine in humidified 5% CO2 atmosphere at 37° C. Selection pressure on the TRex 293 cells was maintained by continuous culture in 10 μg/ml Blasticidin (Sigma, St Louis, Mo.).
For production of TRex HEK293 cells with inducible expression of TRPV1, parental cells were electroporated with the rat TRPV1 cDNA in the pcDNA4TO vector and clonal cell lines were selected by limiting dilution in the presence of 400 μg/ml zeocin (Invitrogen, CA). TRPV1 expression was induced using 1 μg/ml tetracycline for 16 h at 37° C. Stable lines were screened for inducible protein expression using anti-FLAG Western blot, and inducible expression was confirmed.
Calcium responses mediated by TRPV1 were tested by calcium assay in the cell culture system. Cells were washed and incubated with 0.2 μM fluo-4 acetoxymethyl ester (“Fluo-4”) for 30 minutes at 37° C. in a standard modified Ringer's solution of the following composition (in mM): NaCl 145, KCl2.8, CsCl10, CaCl2 10, MgCl2 2, glucose 10, Hepes·NaOH 10, pH 7.4, 330 mOsm. Cells were transferred to 96-well plates at 50,000 cells/well and stimulated as indicated. The terpenes used were alpha-bisabool, alpha-pinene, myrcene, camphene, linalool, ocimene, humulene, beta-caryophyllene, beta-pinene, limonene, and nerolidol. The terpenes were diluted in DMSO and added to the wells to a final concentration of 10 μM. Vehicle (DMSO) alone was run as a negative control and subtracted from the terpene traces. Calcium signals were acquired using a Flexstation 3 (Molecular Devices, Sunnydale, USA). Data was analyzed using SoftMax® Pro 5 (Molecular Devices).
Calcium responses mediated by TRPA1, TRPM8, TRPV2, and TRPV1 were tested by calcium assay in the cell culture system. Cells were washed and incubated with 0.2 μM fluo-4 acetoxymethyl ester (“Fluo-4”) for 30 minutes at 37° C. in a standard modified Ringer's solution of the following composition (in mM): NaCl 145, KCl 2.8, CsCl 10, CaCl2 10, MgCl2 2, glucose 10, Hepes·NaOH 10, pH 7.4, 330 mOsm. Cells were transferred to 96-well plates at 50,000 cells/well and stimulated with 10 μM myrcene diluted in DMSO. Vehicle (DMSO) was used as a negative control. Vehicle traces were subtracted from the myrcene traces for each cell line.
As shown in FIGS. 16A-H, a variety of cannabinoids were capable of initiating Ca^2+ fluxes in HEK-TRPV1 overexpressing cells, except for cannabigerol and cannabinol. Comparative responses to a single dose (10 μM concentration) of a variety of cannabinoids were made in the presence of 1 mM external Ca^2+, which are population-based, or bulk Ca^2+, measurements with each trace representing averaged triplicates of 100,000 cells per sample. […] For each of the cannabinoid compounds, dose responses at the population level were performed. […] The lower limit of detectable calcium responses in this system varied from 10-100 nM (CBDV, CBGA) to 1-10 μM.

[2] = molecular target: T1, TRPV1; assay: Whole-cell patch clamp of TRPV1 currents in HEK293 cells overexpressing TRPV1 (HEK293-V1); format: cell-based; conditions: for ion selectivity / state of TRPV1 activation: 10 μM capsaicin; for effect of increasing internal calcium (0, 180, 620 nM) on falling phase or inactivation kinetics: 10 μM myrcene, then 1 μM capsaicin; for time course of induced TRPV1 current (sustained or inactivating): cannabinoid at 50, 5 μM myrcene or 1 μM capsaicin
Procedure: HEK TRexTRPV1 were cultured in DMEM, 10% Fetal Bovine Serum, 2 mM Lglutamine, 10 μg/ml Blasticidin (Calbiochem, San Diego Calif.), 400 μg/ml Zeocin (InvivoGen, San Diego Calif.), where indicated transgene expression was induced using 1 μg/ml Tetracycline for 16-24 hrs. Unless otherwise indicated, basal expression of TRPV1 without induction was sufficient for these studies, and comparisons were made to untransfected HEK where needed. HEKTRex293 over-expressing human TRPV2, human TRPA1 and human TRPM8 were obtained from SB Drug Discovery (Glasgow, Scotland) and cultured as described above. The cannabinoids and terpenes were assayed in HEK cells that have been transfected with the TRPV1 ion channel protein. These cells are called HEK293-V1 cells.
This technique is used to study ionic currents from HEK293-V1. The voltage across the cell membrane is controlled and the ionic currents associated with changes in voltage are measured. A micropipette tip is pulled to a few micrometers in diameter followed by heating the tip to produce a smooth surface that assists in forming a high resistance seal with the cell membrane. To obtain this high resistance seal, the micropipette is pressed against a cell membrane and suction is applied. The membrane then fuses onto the glass surface creating a high resistance in the gigaohm range. This makes it possible to isolate electronically the ionic currents measured across the membrane patch or across the entire cell.
Patch-clamp experiments were performed in the whole-cell configuration at 21-25° C. Patch pipettes had resistances of 2-3 MΩ. Data was acquired with PatchMaster software (HEKA, Lambrecht, Germany), controlling an EPC-9 amplifier. Voltage ramps of 50 ms spanning the voltage range from −100 to 100 mV were delivered from a holding potential of 0 mV at a rate of 0.5 Hz over a period of 500 ms to 180 seconds (3 minutes). Voltages were corrected for a liquid junction potential of 10 mV. Currents were filtered at 2.9 kHz and digitized at 100 μs intervals. Capacitive currents were determined and corrected before each voltage ramp. The development of currents for a given potential was extracted from individual ramp current records by measuring the current amplitudes at voltages of −80 mV and +80 mV. Data were analyzed with FitMaster (HEKA, Lambrecht, Germany), and IgorPro (WaveMetrics, Lake Oswego, Oreg., USA). Where applicable, statistical errors of averaged data are given as mean±s.e.m with n determinations. The activated current amplitudes are analyzed by nA rather than pA/pF. […] Also the cell size selected for patching was in the 9 -12 pF range.
For patch-clamp recordings, HEK293 cells were kept in a standard sodium-based external Ringer's solution containing (mM): 140 NaCl, 1 CaCl2, 2 MgCl2, 2.8 KCl, 11 glucose, 10 HEPES-NaOH with a pH of 7.2 and osmolarity of 300 mOsmol. To assess the effects of external Calcium (Ca) on TRPV1 inactivation kinetics, Ca at different levels were tested including 0, 1, and 3 mM. In Experiments with zero external Ca, EGTA 10 mM was added and the Na concentration was lowered to 130 mM to maintain standard osmotic conditions at 300 mOsmol. For rapid external solution application and exchanges we used the SmartSquirt delivery system (Auto-Mate Scientific, San Francisco Calif., USA) that included four cryo tubes allowing for solution exchanges within one patch. This system included a ValveLink TTL interface between the electronic valves and the EPC10 amplifier (HEKA, Lambrecht, Germany). This electronic configuration allowed for programmable solution changes via the PatchMaster software (HEKA, Lambrecht, Germany).

C=C1C2CCC(C2)C1(C)C (stereo not drawn) [camphene]
TRPV1-mediated calcium influx compared to vehicle [1]: little to no calcium influx

C=CC(C)(O)CCC=C(C)CCC=C(C)C (stereo not drawn) [nerolidol]
TRPV1-mediated calcium influx compared to vehicle [1]: brief initial calcium influx

C=C(C)[C@H]1CC=C(C)CC1 [limonene]
TRPV1-mediated calcium influx compared to vehicle [1]: little to no calcium influx

COc1cc(CNC(=O)CCCC/C=C/C(C)C)ccc1O [capsaicin, Capsaicin, reference compound]
current induced ([2]; 1 μM capsaicin (not shown), comparison to myrcene): 4-10 nA
ion selectivity / state of TRPV1 activation ([2]; absence of internal BAPTA and Ca2+): Ca^2 ion selective TRPV1 activation
ion selectivity / state of TRPV1 activation ([2]; presence of internal 10 mM BAPTA and 150 nM Ca2+): Na^+ ion selective TRPV1 activation
effect of increasing internal calcium (0, 180, 620 nM) on falling phase or inactivation kinetics [2]: stronger effect
type of TRPV1 current recorded ([2]; Capsaicin 50 nM for 60 seconds, Ca 0 internally and externally): outwardly rectifying TRPV1 current
rectification of current (resulted in rectifying currents or not) ([2]; Capsaicin 500 nM): did not
rectification of current ([2]; Capsaicin low (30 nM) and medium (100 nM) doses): rectifying currents
IV relationship / TRPV1 channel state ([2]; after 1 μM capsaicin): linear due to TRPV1 transitioning to the dilated state (state 2)
time course of induced TRPV1 current (sustained or inactivating) [2]: sustained

C=C1CCC2CC1C2(C)C (stereo not drawn) [beta-pinene]
TRPV1-mediated calcium influx compared to vehicle [1]: little to no calcium influx

C=CC(=C)CCC=C(C)C [myrcene, 7-methyl-3-methylideneocta-1,6-diene]
inward current induced ([2]; 5 μM myrcene, average of 6 independent experiments): approximately 0.5 nA
effect of increasing internal calcium (0, 180, 620 nM) on falling phase or inactivation kinetics [2]: minor effect
IV relationship / TRPV1 channel state ([2]; 50 μM myrcene (FIG. 10C)): state 1
IV relationship / TRPV1 channel state ([2]; 150 μM myrcene (FIG. 11)): state 1
time course of induced TRPV1 current (sustained or inactivating) [2]: rapidly inactivating
current induced ([2]; myrcene 5 μM, 10 μM and 150 μM (FIGS. 8A-8C)): 0.5-2.2 nA
activation of cells overexpressing TRPV1 (calcium entry) ([1]; 10 μM myrcene): activated
TRPV1-mediated calcium influx compared to vehicle [1]: greatest amount of calcium influx

CC(C)=CCC[C@](C)(O)[C@@H]1CC=C(C)CC1 [alpha-bisabool]
TRPV1-mediated calcium influx compared to vehicle [1]: little to no calcium influx

C=CC(C)(O)CCC=C(C)C (stereo not drawn) [linalool]
TRPV1-mediated calcium influx compared to vehicle [1]: little to no calcium influx

C=CC(C)=CCC=C(C)C [ocimene]
TRPV1-mediated calcium influx compared to vehicle [1]: little to no calcium influx

Oc1cc2c(cc1O)CN(C(=S)NCCc1ccc(Cl)cc1)CCC2 [Capsazepine, reference compound]
effect on capsaicin-induced TRPV1 current ([2]; CPZ 10 μM for 30 seconds after 50 nM Capsaicin for 60 seconds): reduced both the inward and outward currents
effect on capsaicin-activated TRPV1 channel (state 1 and state 2) ([2]; CPZ added after 10 μM capsaicin): rapid TRPV1 channel deactivation
effect on CBD-induced TRPV1 current ([2]; CPZ application 30 seconds after CBD 30 μM): reduced

CC1=CCC2CC1C2(C)C (stereo not drawn) [alpha-pinene]
TRPV1-mediated calcium influx compared to vehicle [1]: little to no calcium influx

C=C1CC/C=C(\C)CC[C@@H]2[C@@H]1CC2(C)C [beta-caryophyllene]
TRPV1-mediated calcium influx compared to vehicle [1]: little to no calcium influx

C/C1=C\CC/C(C)=C/CC(C)(C)/C=C/C1 [humulene]
TRPV1-mediated calcium influx compared to vehicle [1]: little to no calcium influx
